Source: US4409210A, “Antibiotic compound” (priority 1982, dated 1983)
≈ marks a conversion by molar mass, not a printed value. *1 amine or outer side, *2 acyl side, *3 side chain or, on linkers, in order; H or OH if unused. Where a SMILES comes first, the peptide text is derived from it. Bridges are numbered along the chain shown (N, C = ends). Roman numbers before positions name the chains, in order. [ ]: non-standard residue; d: D form. Actinocin(9to1) = Cc1c2oc3c(C)ccc(C(=O)[*:1])c3nc-2c(C(=O)[*:2])c(N)c1=O; NMeV = CN[C@H](C(=O)O)C(C)C; Sar = CNCC(=O)O

Key:
S. aureus 209P = experiment: Antibiotic sensitivity, paper disc-agar diffusion method; format: cell-based; parameters: key: S (sensitive); R (resistant); I (intermediate); conditions: nutrient agar, 2 day's incubation at 28° C., Difco discs, amount/disc per antibiotic
Strain G393-B445 = experiment: as above; format: cell-based, Empedobacter sp.; parameters: key: S (sensitive); R (resistant); I (intermediate); conditions: nutrient agar, 2 day's incubation at 28° C., Difco discs, amount/disc per antibiotic
E. coli NIHJ = experiment: as above; format: cell-based; parameters: key: S (sensitive); R (resistant); I (intermediate); conditions: nutrient agar, 2 day's incubation at 28° C., Difco discs, amount/disc per antibiotic
[1] = tested on: Bacillus anthracis IID-115; experiment: microbe, parasite or virus in culture; format: cell-based; conditions: Bacillus anthracis, IID115, read-out: minimum inhibitory concentration (MIC)
[2] = tested on: Bacillus subtilis ATCC 6633; experiment: MIC, serial two-fold dilution method (aerobic); format: cell-based; conditions: ATCC6633; Bacillus subtilis ATCC 6633; Mueller-Hinton agar; inoculum 10^4; read-out: minimum inhibitory concentration (MIC)
Proteus mirabilis A9554 = experiment: MIC, serial two-fold dilution method (aerobic); format: cell-based; conditions: Proteus mirabilis A9554; Mueller-Hinton agar; inoculum 10^4; read-out: minimum inhibitory concentration (MIC)
Sarcina lutea PCI-1001 = experiment: MIC, serial two-fold dilution method (aerobic); format: cell-based; conditions: Micrococcus luteus, PCI1001; Sarcina lutea PCI-1001; Mueller-Hinton agar; inoculum 10^4; read-out: minimum inhibitory concentration (MIC)
Escherichia coli NIHJ = experiment: MIC, serial two-fold dilution method (aerobic); format: cell-based; conditions: Escherichia coli NIHJ; Mueller-Hinton agar; inoculum 10^4; read-out: minimum inhibitory concentration (MIC)
[3] = tested on: Staphylococcus aureus A9601; experiment: MIC, serial two-fold dilution method (aerobic); format: cell-based; conditions: Staphylococcus aureus A9601; Mueller-Hinton agar; inoculum 10^4; read-out: minimum inhibitory concentration (MIC)
[4] = tested on: Klebsiella pneumoniae D-11; experiment: MIC, serial two-fold dilution method (aerobic); format: cell-based; conditions: D11; Klebsiella pneumoniae D-11; Mueller-Hinton agar; inoculum 10^4; read-out: minimum inhibitory concentration (MIC)
[5] = tested on: Pseudomonas aeruginosa D-113; experiment: MIC, serial two-fold dilution method (aerobic); format: cell-based; conditions: D113; Pseudomonas aeruginosa D-113; Mueller-Hinton agar; inoculum 10^4; read-out: minimum inhibitory concentration (MIC)
[6] = tested on: Staphylococcus aureus A20239; experiment: MIC, serial two-fold dilution method (aerobic); format: cell-based; conditions: Staphylococcus aureus A20239; Mueller-Hinton agar; inoculum 10^4; read-out: minimum inhibitory concentration (MIC)
[7] = tested on: Staphylococcus aureus A9856; experiment: MIC, serial two-fold dilution method (aerobic); format: cell-based; conditions: Staphylococcus aureus A9856; Mueller-Hinton agar; inoculum 10^4; read-out: minimum inhibitory concentration (MIC)
[8] = tested on: Staphylococcus aureus 209P; experiment: MIC, serial two-fold dilution method (aerobic); format: cell-based; conditions: Staphylococcus aureus 209P; Mueller-Hinton agar; inoculum 10^4; read-out: minimum inhibitory concentration (MIC)
[9] = tested on: Staphylococcus aureus Smith; experiment: MIC, serial two-fold dilution method (aerobic); format: cell-based; conditions: Staphylococcus aureus Smith; Mueller-Hinton agar; inoculum 10^4; read-out: minimum inhibitory concentration (MIC)
Micrococcus flavus D-12 = experiment: MIC, serial two-fold dilution method (aerobic); format: cell-based; conditions: D12; Micrococcus flavus D-12; Mueller-Hinton agar; inoculum 10^4; read-out: minimum inhibitory concentration (MIC)
Proteus vulgaris A9436 = experiment: MIC, serial two-fold dilution method (aerobic); format: cell-based; conditions: Proteus vulgaris A9436; Mueller-Hinton agar; inoculum 10^4; read-out: minimum inhibitory concentration (MIC)
[10] = tested on: Staphylococcus aureus A20394; experiment: MIC, serial two-fold dilution method (aerobic); format: cell-based; conditions: Staphylococcus aureus A20394; Mueller-Hinton agar; inoculum 10^4; read-out: minimum inhibitory concentration (MIC)
[11] = tested on: Staphylococcus aureus A20701; experiment: MIC, serial two-fold dilution method (aerobic); format: cell-based; conditions: Staphylococcus aureus A20701; Mueller-Hinton agar; inoculum 10^4; read-out: minimum inhibitory concentration (MIC)
[12] = tested on: Staphylococcus aureus A22421; experiment: MIC, serial two-fold dilution method (aerobic); format: cell-based; conditions: Staphylococcus aureus A22421; Mueller-Hinton agar; inoculum 10^4; read-out: minimum inhibitory concentration (MIC)
[13] = tested on: Staphylococcus aureus BX-1633; experiment: MIC, serial two-fold dilution method (aerobic); format: cell-based; conditions: BX1633; Staphylococcus aureus BX-1633; Mueller-Hinton agar; inoculum 10^4; read-out: minimum inhibitory concentration (MIC)
[14] = tested on: Staphylococcus aureus #193; experiment: MIC, serial two-fold dilution method (aerobic); format: cell-based; conditions: Staphylococcus aureus #193; Mueller-Hinton agar; inoculum 10^4; read-out: minimum inhibitory concentration (MIC)
[15] = tested on: Staphylococcus aureus A9748; experiment: MIC, serial two-fold dilution method (aerobic); format: cell-based; conditions: Staphylococcus aureus A9748; Mueller-Hinton agar; inoculum 10^4; read-out: minimum inhibitory concentration (MIC)
[16] = tested on: Staphylococcus aureus A20610; experiment: MIC, serial two-fold dilution method (aerobic); format: cell-based; conditions: Staphylococcus aureus A20610; Mueller-Hinton agar; inoculum 10^4; read-out: minimum inhibitory concentration (MIC)

What does the source list for `Cc1c2oc3c(C)ccc(C(=O)N[C@@H]4C(=O)N[C@H](C(C)C)C(=O)N5CCC[C@H]5C(=O)N(C)CC(=O)N(C)[C@@H](C(C)C)C(=O)O[C@@H]4C)c3nc-2c(C(=O)N[C@@H]2C(=O)N[C@H](C(C)C)C(=O)N3CCC[C@H]3C(=O)N(C)CC(=O)N(C)[C@@H](C(C)C)C(=O)O[C@@H]2C)c(N)c1=O` [Actinomycin D] (I: T[dV]P[Sar][NMeV] / II: T[dV]P[Sar][NMeV]; ester I:1-I:C, II:1-II:C; linker I:N-II:N via Actinocin(9to1))?
Sensitivity S. aureus 209P (S. aureus 209P): S; Sensitivity Strain G393-B445 (Strain G393-B445): I; Sensitivity E. coli NIHJ (E. coli NIHJ): R

With `NC[C@H]1O[C@H](O[C@H]2[C@H](O)[C@@H](O[C@H]3O[C@H](CO)[C@@H](O)[C@H](N)[C@H]3O)[C@H](N)C[C@@H]2N)[C@H](O)[C@@H](O)[C@@H]1O` [Kanamycin] as the compound, how does the MIC [1] read?
The MIC was 0.4 µg/mL (≈ 0.826 µM).

And the MIC [2]?
Its MIC is 0.2 µg/mL (≈ 0.413 µM).

What about the MIC (Proteus mirabilis A9554) of the same compound?
Its MIC is 0.4 µg/mL (≈ 0.826 µM).

What about the MIC (Sarcina lutea PCI-1001) of the same compound?
The MIC was 3.1 µg/mL (≈ 6.4 µM).

What about the MIC (Escherichia coli NIHJ) of the same compound?
The MIC was 0.8 µg/mL (≈ 1.65 µM).

What about the MIC [3] of the same compound?
Its MIC is 0.4 µg/mL (≈ 0.826 µM).

And the MIC [4]?
The MIC was 0.2 µg/mL (≈ 0.413 µM).

What about the MIC [5] of the same compound?
Its MIC is > 100 µg/mL.

What about the MIC [6] of the same compound?
The MIC was > 100 µg/mL.

What about the MIC [7] of the same compound?
Its MIC is 0.8 µg/mL (≈ 1.65 µM).

And the MIC [8]?
Its MIC is 0.4 µg/mL (≈ 0.826 µM).

What about the MIC [9] of the same compound?
Its MIC is 0.4 µg/mL (≈ 0.826 µM).

And the MIC (Micrococcus flavus D-12)?
Its MIC is 3.1 µg/mL (≈ 6.4 µM).

What about the MIC (Proteus vulgaris A9436) of the same compound?
Its MIC is 0.4 µg/mL (≈ 0.826 µM).

And the MIC [10]?
Its MIC is 0.8 µg/mL (≈ 1.65 µM).

What about the MIC [11] of the same compound?
The MIC was 100 µg/mL (≈ 206 µM).

What about the MIC [12] of the same compound?
Its MIC is > 100 µg/mL.

And the MIC [13]?
The MIC was 0.8 µg/mL (≈ 1.65 µM).

What about the MIC [14] of the same compound?
Its MIC is 0.8 µg/mL (≈ 1.65 µM).

And the MIC [15]?
The MIC was 1.6 µg/mL (≈ 3.3 µM).

What about the MIC [16] of the same compound?
The MIC was 100 µg/mL (≈ 206 µM).

With `CN(C)[C@@H]1C(O)=C(C(N)=O)C(=O)[C@@]2(O)C(O)=C3C(=O)c4c(O)cccc4[C@@](C)(O)[C@H]3C[C@@H]12` [Tetracycline] as the compound, how does the “Sensitivity S. aureus 209P” value (S. aureus 209P) read?
The value was “S”.

And the “Sensitivity Strain G393-B445” value (Strain G393-B445)?
Its value is “S”.

And the “Sensitivity E. coli NIHJ” value (E. coli NIHJ)?
The value was “S”.

Polymyxin B was tested. Which “Sensitivity S. aureus 209P” value (S. aureus 209P) did it give?
Its value is “R”.

And the “Sensitivity Strain G393-B445” value (Strain G393-B445)?
Its value is “R”.

What about the “Sensitivity E. coli NIHJ” value (E. coli NIHJ) of the same compound?
The value was “R”.

Which “Sensitivity S. aureus 209P” value (S. aureus 209P) does the source give for `[H]/N=C(/N)N[C@H]1[C@H](O)[C@@H](O)[C@H](O[C@@H]2O[C@@H](C)[C@](O)(C=O)[C@H]2O[C@@H]2O[C@@H](CO)[C@H](O)[C@@H](O)[C@@H]2NC)[C@@H](N/C(N)=N\[H])[C@@H]1O` [Streptomycin] here?
The value was “I”.

And the “Sensitivity Strain G393-B445” value (Strain G393-B445)?
Its value is “S”.

And the “Sensitivity E. coli NIHJ” value (E. coli NIHJ)?
Its value is “I”.

With `CC1(C)S[C@@H]2[C@H](NC(=O)Cc3ccccc3)C(=O)N2[C@H]1C(=O)O` [Pencillin G] as the compound, how does the “Sensitivity S. aureus 209P” value (S. aureus 209P) read?
The value was “S”.

And the “Sensitivity Strain G393-B445” value (Strain G393-B445)?
The value was “S”.

What about the “Sensitivity E. coli NIHJ” value (E. coli NIHJ) of the same compound?
The value was “I”.
